Columns and labels:
5-HT1D = 5-HT1D radioligand binding assay (3H-5HT, crude pig striatal membranes); details: for % inhibition of binding, 5-HT1D: mean of triplicates
Procedure: (§1) 5-HT1D radioligand binding assay was carried out according to Heuring and Peroutka (Heuring, R. E., and Peroutka, S. J., J. Neurosci., 7:894-903, 1987) with slight modifications as follows. Polypropylene tubes containing ^3 H-5HT (2 nM), cyanopindolol (100 nM), mesulergine (100 nM) and crude pig striatal membranes (10 mg wet weight per tube) in a final assay volume of 1 ml were used. All reagents and tissues were made up in […] Tris. HCl containing 0.1% ascorbate, 10 μM pargyline and 4 mM CaCl2 (pH 7.7 at room temperature). 5-HT (10 μM) was used to define non-specific binding. The incubation was initiated by the addition of membranes and carried out for 30 minutes at 37° C. Following incubation, membranes were rapidly filtered under vacuum through Whatmann GF/B filters using a Brandel Cell Harvester, followed by 2×3 ml washes with 50 mM Tris. HCl (pH 7.7 at room temperature). Bound radioactivity was determined by liquid scintillation spectrometry. 5-HT1A and 5-HT2 radioligand binding assays were performed according to Hall, et al., J. Neurochem., 44, 1685-1696, 1985 and Titeler, et al., Eur. J. Pharmacol., 117, 145-146, 1987, respectively.

5-HT1A = target: T1, 5-HT1A (Rattus norvegicus, UniProt P19327); test: 5-HT1A radioligand binding assay
T1 construct: from tissue
T1 sequence (P19327 1-422): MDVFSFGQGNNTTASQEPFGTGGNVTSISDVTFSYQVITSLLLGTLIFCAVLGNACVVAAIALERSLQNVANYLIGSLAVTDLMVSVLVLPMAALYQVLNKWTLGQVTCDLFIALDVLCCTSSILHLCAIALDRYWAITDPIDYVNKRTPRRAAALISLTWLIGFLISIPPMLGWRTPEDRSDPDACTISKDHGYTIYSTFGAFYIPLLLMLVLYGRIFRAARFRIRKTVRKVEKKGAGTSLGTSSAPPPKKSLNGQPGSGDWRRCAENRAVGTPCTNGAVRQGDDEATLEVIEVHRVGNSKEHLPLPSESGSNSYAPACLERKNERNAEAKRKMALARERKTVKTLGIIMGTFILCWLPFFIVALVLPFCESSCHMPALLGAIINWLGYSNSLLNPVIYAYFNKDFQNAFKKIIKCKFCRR
Procedure: as §1

5-HT2 = target: T2, 5-HT2 (Rattus norvegicus, UniProt P14842); test: 5-HT2 radioligand binding assay; details: mean of triplicates
T2 construct: from tissue; host or cells: rat cortical membranes (inferred from the cited Titeler et al)
T2 sequence (P14842 whole entry): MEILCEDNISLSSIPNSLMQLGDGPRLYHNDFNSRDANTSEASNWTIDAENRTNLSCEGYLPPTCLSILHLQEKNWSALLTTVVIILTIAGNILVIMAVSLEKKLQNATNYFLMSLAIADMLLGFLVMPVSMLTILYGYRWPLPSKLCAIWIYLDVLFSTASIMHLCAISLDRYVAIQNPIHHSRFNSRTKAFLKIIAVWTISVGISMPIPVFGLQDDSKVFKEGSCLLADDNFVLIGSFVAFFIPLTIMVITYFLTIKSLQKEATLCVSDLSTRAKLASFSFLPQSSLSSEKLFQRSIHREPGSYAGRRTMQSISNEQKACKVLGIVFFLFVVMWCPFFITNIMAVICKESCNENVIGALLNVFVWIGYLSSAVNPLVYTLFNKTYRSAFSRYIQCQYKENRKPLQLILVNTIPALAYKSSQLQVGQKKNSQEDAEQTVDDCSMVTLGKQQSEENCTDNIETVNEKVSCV
Procedure: as §1

Structure (SMILES) | % inhibition of binding, 5-HT1D (5-HT1D; 4.1 μM) [%] | % inhibition of binding, 5-HT1D (5-HT1D; 41 μM) [%] | inhibition at 4.1 µM (5-HT1A; 4.1 μM, mean of triplicates) [%] | inhibition at 41 µM (5-HT1A; 41 μM, mean of triplicates) [%] | affinity for 5-HT1A relative to 5-HT1D and 5-HT2 (5-HT1A; 5-HT1A versus 5-HT1D and 5-HT2) | inhibition at 4.1 µM (5-HT2; 4.1 μM) [%] | inhibition at 41 µM (5-HT2; 41 μM) [%] | rank order of affinity for these subtypes (5-HT1D; 5-HT1D, 5-HT1A, 5-HT2, for comparison) | pIC50, 5-HT1D (5-HT1D; for comparison) | IC50 (5-HT1A) [nM]
C=CC(C)(C)n1cc(CN(C)C)c2ccccc21 [Compound I, 1-(1,1-dimethylallyl)-3-dimethylaminomethylindole] | 44 | 81 | 20 | 62 | less affinity for 5-HT1A than for 5-HT1D and 5-HT2 receptor subtypes | 42 | 86 | – | – | –
CNS(=O)(=O)Cc1ccc2[nH]cc(CCN(C)C)c2c1 [sumatriptan, reference compound] | – | – | – | – | – | – | – | 5-HT1D >5-HT1A >5-HT2 | 7.7 | 501
